Data from US9718771B2, “Aniline derivative, pharmaceutical composition containing same, and use thereof” (Kissei Pharmaceutical Co., Ltd., priority 2014, dated 2017).

Key:
[1] = test system: Naïve T cells-transferred colitis model; experiment: Drug efficiency evaluation in naïve T cells-transferred colitis model; format: in vivo; conditions: SCID mice, mean ± standard error; for Body weight change ratio (%): oral twice a day from day 15, 15 mg/kg, day 30; for Colon weight (%) / DAI score (%): oral twice a day, 15 mg/kg, vehicle group = 100%
Protocol: The Drug Efficiency Evaluation in Naïve T Cells—Transferred Colitis Model
(1) Purification of CD45RB Positive Naïve T Cells and Transfer the Cells into SCID Mice
After female BALB/c mice (Charles River Japan, 8-weeks-old in use) were sacrificed by blood removal from cervical vein under inhalation anesthesia with isoflurane spleens were harvested from these mice. Spleens were washed with ice-cold PBS (phosphate buffered saline, Invitrogen) and stored in 50 mL tube containing PBS on ice. Spleens stored on ice were mashed with the upper portion of slide glasses inside a biological safety cabinet, and filtered through a cell filter (pore size 70 μm), and the filtrate was centrifuged at 500×g, room temperature for 5 minutes. After the supernatant was removed, 12 mL of RBC lysis buffer (Biolegend) was added to a cell pellet and it was resuspended and left for about 3 minutes. The supernatant was removed after centrifugation and the hemolytic process was performed by repeating same procedure once again.
The cells were purified with Mouse Naive T cell CD4^+/CD62L^+/CD44^low Colum Kit (R&D systems). The cells performed with the hemolytic process, were suspended by column buffer attached to the above Column Kit, and purified through a cell filter (pore size 70 μm) after centrifugation at 500×g, room temperature for 5 minutes. The cells were resuspended with column buffer, and antibody cocktails attached to the above Column Kit were added to this and mixed. After that, the cells were purified according to the protocol of the Column Kit.
Next, purification of CD45RB positive cells was performed by MACS (registered mark) separator (Miltenyi Biotec). The purified cells were suspended with 2 mL of PBS containing 0.5% BSA, and reacted at room temperature for 15 minutes after adding FITC (fluorescein isothiocyanate)-labeled anti-CD45RB antibody (Biolegend). After washing two times with PBS containing 0.5% BSA by centrifugation, the cells were resuspended with 2 mL of PBS containing 0.5% BSA and reacted at room temperature for 10 minutes after adding anti-FITC microbeads (Miltenyi Biotec). After washing one time with PBS containing 0.5% BSA by centrifugation, the cells were resuspended with 3 mL of PBS containing 0.5% BSA, and a fraction of CD45RB positive cells was purified according to the protocol of MACS (registered trademark) separator. In the process of elution after detached from MACS (registered trademark) separator, the cells were separated with 5 mL of PBS. The cell suspension was washed one time by centrifugation with PBS, resuspended by appropriate PBS and measured the cell number as naïve T cells suspension for transfer. Female CB17/Icr-scid/scid Jcl (SCID mice) (Charles River Japan, 8-weeks-old in use) were induced colitis by intraperitoneal administration of 500 μL (divided into 250 μL two times) of naïve T cells suspension prepared at 6×10^5 cells/mL by PBS.
(2) Measurement of Body Weight and Procedure for Administration of Drugs
Body weights were measured at day 1, 8 and 15 as day 0 when naïve T cells were transferred to mice. Mice were grouped evenly, based on body weight change at day 15. The measurement of body weight was performed two times a week after day 15. A solvent (Vehicle) and test compounds were administered twice a day from the evening of day 15. The administration solution was prepared as indicated below. Firstly, 0.5% methyl cellulose (Wako pure chemicals) of 1/10 volume of total volume was added to test compound, and a suspension was prepared by sonication. […] After that, administration solutions for test compounds were prepared by sonication while adding distilled water of 9/10 volume of total volume to these suspensions in several batches. A solution prepared in the same volume ratios of 0.5% methyl cellulose and distilled water as administration solutions for test compounds was used as vehicle. Administration solutions for vehicle or test compounds were orally administered to mice at 5 mL/kg.

EAE model = experiment: Drug efficiency evaluation in experimental autoimmune encephalomyelitis (EAE) model; format: in vivo; conditions: DA rats, oral twice a day, 15 mg/kg, day 0 to day 13; mean ± standard error
Protocol: The Drug Efficiency Evaluation in Experimental Autoimmune Encephalomyelitis (EAE) Model
An EAE model (experimental autoimmune encephalomyelitis, hereinafter referred to as EAE), which is widely used as an animal model reflecting the pathological condition of human multiple sclerosis was prepared using DA rats (Japan SLC, 8 to 9-week-old in use) as described below, and the effect of test compound was confirmed.
Firstly, the emulsion for immunization was prepared by the method described below. After rats were sacrificed by exsanguination from the carotid artery under anesthesia of isoflurane, two spinal cords and a brain were collected. […]
The EAE score was evaluated daily to day 13 as day 0 when DA rats were immunized. The EAE score was evaluated as 0-5 points: 0 points: no symptoms, 1 point: walkable straight with normal our limbs but complete loss of tail tonus, 2 points: slight paralysis of a limb (especially hind limbs) and walkable wobbly, 3 points: full paralysis of two limbs (especially hind limbs) and walkable with a limp, 4 points: tetraplegia, moribund or abasia, 5 points: dead.
The area under the curve was calculated based on the variation per day of EAE score during evaluation periods from immunization day 0 to day 13, and used as an index for effects of test compounds.

Row | Structure (SMILES) | Body weight change ratio (%) [1] [%] | Colon weight (%) [1] [%] | DAI score (%) [1] [%] | Area under the curve of EAE score (EAE model)
1 | CCN(c1ccc(Cl)c(C(F)(F)F)c1)C(C)c1ccc(C)c(CN2CC(C(=O)O)C2)c1 (stereo not shown) [Compound 2-7, 1-(5-{1-[(4-Chloro-3-trifluoromethylphenyl)(ethyl)amino]ethyl}-2-methylbenzyl)-azetidine-3-carboxylic acid] | 1.6 ± 1.2 | 32.4 ± 14.2 | 22.1 ± 14.8 | 6.1 ± 1.6
2 | CCN(c1ccc(Cl)c(C)c1)C(C)c1ccc(C)c(CN2CC(C(=O)O)C2)c1 (stereo not shown) [Compound 2-6, 1-(5-{1-[(4-Chloro-3-methylphenyl)(ethyl)amino]ethyl}-2-methylbenzyl)azetidine-3-carboxylic acid] | 1.7 ± 1.1 | 36.8 ± 17.1 | 24.3 ± 11.8 | –
